Laboratory results taken from publication PMC4747340, “A new class of small molecule estrogen receptor-alpha antagonists that overcome anti-estrogen resistance” (Oncotarget, 2015).
pIC50: −log10 of the molar value.

Columns and labels:
ER/ERE complex = biological target: T1, ER/ERE complex (Homo sapiens, UniProt P03372); assay: EMSA and supershift assays of ER binding to consensus ERE, MCF-7 nuclear extracts; assay type: biochemical; settings: for ER/ERE complex in EMSA, compound added directly to nuclear extracts: 1-5 μM added to MCF-7 nuclear extracts, compared with pre-incubation of cells; for interaction of ER with a model ERE oligonucleotide (EMSA, supershift): MCF-7 cells
T1 construct: MCF-7 cells in 24-well dishes were transfected overnight with the ERE-TK-Luc reporter plasmid; endogenous in cells; host or cells: MCF-7
T1 sequence (P03372 1-595): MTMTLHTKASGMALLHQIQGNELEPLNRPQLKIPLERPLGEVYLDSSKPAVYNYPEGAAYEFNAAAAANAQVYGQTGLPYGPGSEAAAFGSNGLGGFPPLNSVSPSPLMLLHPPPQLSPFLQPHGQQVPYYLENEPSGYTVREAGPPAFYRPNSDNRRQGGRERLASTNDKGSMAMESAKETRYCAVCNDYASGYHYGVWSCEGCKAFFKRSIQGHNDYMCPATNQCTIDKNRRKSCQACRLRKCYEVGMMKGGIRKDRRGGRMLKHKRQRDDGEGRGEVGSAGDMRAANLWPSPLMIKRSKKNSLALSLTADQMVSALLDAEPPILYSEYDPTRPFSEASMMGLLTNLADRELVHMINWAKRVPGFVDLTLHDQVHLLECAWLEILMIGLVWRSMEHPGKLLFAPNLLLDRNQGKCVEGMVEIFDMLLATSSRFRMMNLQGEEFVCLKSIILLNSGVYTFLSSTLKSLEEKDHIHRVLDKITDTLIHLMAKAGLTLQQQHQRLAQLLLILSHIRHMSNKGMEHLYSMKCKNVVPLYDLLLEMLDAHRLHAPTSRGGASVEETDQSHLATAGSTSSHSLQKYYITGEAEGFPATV
Experimental: After the 24-hr incubation, the cells were harvested, nuclear extracts were prepared, and the extracts were reacted with labeled “hot” ERE and an excess of unlabeled “cold” ERE, as indicated, prior to electrophoresis. In panel B, the experiment was performed similarly except that an anti-ER antibody was added to generate a “supershift”. C., D. Experiments were performed similarly to those above, except that different concentrations of compound (as indicated) were added directly to the reaction mixture containing nuclear extract and were not pre-incubated with whole cells. […] E., F. These experiments were performed similarly to those in C and D, except that anti-ER antibody was added to the reaction mixture to reveal “supershifted” bands. […] The data shown in each panel are representative of three independent experiments.
Double-stranded oligonucleotides containing a consensus ERE were obtained from Santa Cruz Biotechnology (sc-2858). Sequences of the oligonucleotides were: sense 5′-[…]-3′ and antisense: 3′-[…]-5′. Oligonucleotides were 3′-end-labeled using a Biotin Kit (Thermo Scientific, Rockford, IL). DNA binding reactions were carried out using nuclear extracts of MCF-7 cells that were treated ± E2 (10 nM) and ± the indicated compound for 24-hr. Treated cells were harvested and nuclear extracts were prepared using the NE-PER Nuclear and Cytoplasmic Extraction Reagents (Thermo Scientific). Aliquots of nuclear extract protein (2 μg) were incubated with gel-shift binding buffer (LightShift Chemiluminescent EMSA Kit, Thermo Scientific) for 30 min at 25°C. After incubation, 40 fmol of biotin-labeled ERE-containing oligonucleotides were added, and the mixture was re-incubated for 30 min at 25°C. Reaction products were loaded electrophoresed on a 6% DNA retardation gel (Invitrogen) and transferred onto a nylon membrane. Biotin-labeled DNA was detected using the Chemiluminescent Nucleic Acid Detection Module (Thermo Scientific). To test the specificity of binding, a 40-fold excess of unlabeled (“cold”) oligonucleotide was added to one of the reactions along with the biotin-labeled (“hot”) oligonucleotide. Note: In some experiments, the compound was added to the reaction mixture after the nuclear extract was prepared. Supershift assays were performed as above, except that before addition of the hot ERE oligonucleotide, nuclear extracts were incubated with 2-μg of anti-ER IgG (rabbit polyclonal, HC-20, Santa Cruz) for 30 min at 25°C.

LCC9 cells = assay: cell proliferation assay (cell counts days 1, 3, 5), LCC9; assay type: cell-based, human; settings: for LCC9 cell proliferation, compound combined with Tam: compound plus Tam (1 μM) compared with compound alone
Experimental: Starting on day 1, cells were refed daily with fresh medium (DMEM plus 5% CSS) containing the indicated agent. In panel F, the cells were refed with medium also containing ER-siRNA or control-siRNA (100 nM) at the indicated times. Wells were counted on days 1, 3, and 5 to determine cell numbers. Values are means ± SEMs of triplicate wells. The data shown in each panel are representative of three independent experiments.
Assays were performed using as the growth medium phenol red-free DMEM containing 5% charcoal-stripped serum. Briefly, proliferating cells were harvested using trypsin, counted, inoculated into 12-well dishes at 1 × 10^4 cells per well on day 0 and allowed to attach and recover for 24 hr. The cells were then treated with the indicated agents for up to five days, with daily refeeding with fresh medium and agents. Triplicate wells were counted by Coulter Counter on days 1, 3, and 5. For experiments using siRNAs, cells were treated with the indicated siRNA (100 nM) starting on day -2, and fresh siRNA was added on days 0, 2, and 4.

[1] = biological target: T2, estrogen receptor-alpha (ER) (Homo sapiens, UniProt P03372); assay: constitutive ER activity, ERE-TK-Luc reporter, in anti-estrogen resistant LCC9 cells; assay type: cell-based; design: LCC9 cells in 24-well dishes were transfected overnight with the ERE-TK-Luc reporter plasmid; endogenous in cells; host or cells: LCC9; settings: for pIC50: LCC9, no E2, 24 hr, read-out: IC50 for inhibition of ER activity in LCC9
T2 sequence (P03372 1-595): T1 sequence (P03372 1-595)
Experimental: For MCF-7, luciferase activity is expressed as a fold-change relative to the no E2 control. For LCC9, luciferase activity is expressed relative to the control without the reporter present. Values plotted are means ± SEMs of four replicate wells. The data shown in each panel are representative of three independent experiments.
The cells were then treated with the indicated concentrations of the six bioactive compounds or vehicle only (DMSO) for 24-hr and assayed for luciferase activity. Luciferase activity is expressed as a percentage of the DMSO control. Values are means ± SEMs of four replicate wells. The data shown in each panel are representative of three independent experiments.
The cells were then harvested for luciferase assays. Luciferase activity was expressed as a fold-change relative to the no reporter control. Values plotted are means ± SEMs of four replicate wells. The data shown are representative of three independent experiments.
Subconfluent cells in 24-well dishes were transfected overnight with 0.25 μg of each indicated vector plus the ERE-TK-Luc reporter in serum-free DMEM containing Lipofectamine2000 (Life Technologies, Washington, DC). Total transfected DNA was kept constant by addition of control vector. The cells were washed, incubated in phenol red-free DMEM containing 5% charcoal-stripped serum (obtained from the Tissue Culture Shared Resource) (0.2 ml/well) ± E2 (10 nM) ± the indicated compound for 24-hr, and harvested for luciferase assays. For each assay condition was tested in quadrupicate. To monitor the transfection efficiency, cultures were co-transfected with plasmid pRSV-β-gal (Promega, Madison, WI) to visualize transfected cells by X-gal staining.

SMILES	ER/ERE complex in EMSA, compound added directly to nuclear extracts (ER/ERE complex)	interaction of ER with a model ERE oligonucleotide (EMSA, supershift) (ER/ERE complex)	ER/ERE complex in EMSA, cells pre-incubated with compound (ER/ERE complex; MCF-7 pre-incubated with E2 10 nM and compound 1 or 20 μM for 24 hr)	effect on LCC9 cell growth, single agent (LCC9 cells; DMEM + 5% charcoal-stripped serum, up to 5 days, 4631-P/1 at 1 μM)	LCC9 cell proliferation, compound combined with Tam (LCC9 cells)	effect on ER activity in LCC9 cells, single agent ([1]; LCC9, 24 hr, Tam 5 μM in b8)	pIC50 [1]	ER activity in LCC9 cells, compound combined with Tam ([1]; compound plus Tam compared with compound alone, 24 hr)	LCC9 cell proliferation in ER-siRNA-treated cells (LCC9 cells; ER-siRNA 100 nM)
O=C(c1cc(Br)ccc1O)c1cc(Br)ccc1O [4631-P/1]	greater effect	disrupt the interaction of ER with a model ERE oligonucleotide	dose-dependent reduction of the ER/ERE complex	inhibited LCC9 cell growth	greater inhibition of cell proliferation than 4631-P/1 alone	inhibited ER activity in LCC9 cells	≥ 6.00	significantly lower ER activity than 4631-P/1 alone	–
O=C(CC(c1ccccc1)N1CCCCC1)c1ccccc1 (stereo not shown) [35446-L/1, 1,3-diphenyl-3-(piperidin-1-yl)propan-1-one]	greater effect	disrupt the interaction of ER with a model ERE oligonucleotide	–	–	greater inhibition of LCC9 proliferation than did 35466-L/1 alone	–	≥ 6.00	–	little effect on cell proliferation
